Holding throughout (format): in vivo
One experiment deals with PC-3 cells. As to the kind of experiment: mouse PC-3 prostate xenograft model, subcutaneous tumor burden. The following applies: for End Volume / Start Volume: 10 mg/kg/day (table); for End Volume: after 25 days of treatment; for Start Volume: tumor volume at start.
A further experiment relates to PAN-02 cells. Description: mouse PAN-02 xenograft model, subcutaneous tumor burden. The source says: The PAN-02 cells were maintained by in vivo passaging in C57/1316 mice. Male C57/B16 mice were implanted with PAN-02 cells (8 mm^3 tumor fragments) into the inguinal area. Each mouse was implanted with an 8 mm^3 tumor PAN-02 tumor fragment collected from a donor mouse. The tumor fragment was loaded onto a 16 G trocar and implanted by piercing through the skin in the right inguinal area. The animals were randomly assigned to treatment groups (N=14/group). […] Mice received either vehicle or the test compound at 20 mg/kg/day. Tumor volumes of the two groups were measured at regular intervals during treatment, which lasted 32 days.

For another experiment, the system named is SKOV-3 cells. Description: mouse SKOV-3 xenograft model, subcutaneous tumor burden. The note with it: for End Volume / Start Volume: nude mice, HCl salt via s.c. Alzet mini pump; for End Volume: treatment lasted 74 days; for Start Volume: tumor volume at start. As to the method: When the average tumor size reached 50 mm^3, animals were randomly assigned to treatment groups. […] Tumor volumes of the two groups were measured at regular intervals during treatment, which lasted 74 days.

Setting [1] is: PC-3 xenograft, male athymic nude mice, HCl salt via s.c. Alzet mini pump, continuous.
Where [2] appears, read: PC-3 xenograft (Example 5), nude mice, HCl salt of cyclopamine via s.c. Alzet mini pump.

Structures are written as SMILES.

Experimental for PC-3 cells: A study was performed in mouse PC-3 prostate xenograft models to assess the ability of the methods of the present invention to reduce subcutaneous tumor burden. In the study male athymic nude (Nu/Nu) mice were implanted with PC-3 cells (1×10^7 cells) into the flank of the left leg. When the average tumor size reached 200 mm^3 animals were randomly assigned to treatment groups (N=12/group). Mice were implanted with Alzet mini pumps containing either the HCl salt of compound 1 or vehicle (30% HPBCD in WFI). The mini pumps were surgically implanted subcutaneously on the flank of the right leg, contralateral to the site of the tumor implant. The pumps were replaced with new pumps every 6th day of the study. In the study, mice received either vehicle or the test compound at 10.6 mg/kg/day. Tumor volumes for each group were measured at regular intervals during treatment. The animals were sacrificed after 25 days of treatment and tumor volumes were compared.
A study was performed in mouse PC-3 prostate xenograft models to assess the ability of the methods of the present invention to reduce subcutaneous tumor burden. Male athymic nude (Nu/Nu) mice were implanted with PC-3 cells (1×10^7 cells) into the flank of the left leg. When the average tumor size reached 200 mm^3, animals were randomly assigned to treatment groups (N=12/group). […] The mini pumps were surgically implanted subcutaneously on the flank of the right leg, contralateral to the site of the tumor implant. The pumps were replaced with new pumps every 6th day of the study. Mice received either vehicle or the test compound at 10.6 mg/kg/day. Tumor volumes for each group were measured at regular intervals during treatment. The animals were sacrificed after 25 days of treatment, and tumor volumes were compared.

Turning to `CC1=C2C[C@H]3[C@@H](CCC4=CC(=O)CC[C@@]43C)[C@@H]2CC[C@@]2(C1)O[C@@H]1C[C@H](C)CN[C@H]1[C@H]2C` [Compound 1], the “End Volume” value with PC-3 cells (setting [1]) was 444 ± 101 mm^3; in the experiment on PAN-02 cells (PAN-02 tumor fragments in male C57/B16 mice, HCl salt via s.c. Alzet mini pump, 20 mg/kg/day, treatment lasted 32 days) it was 481 ± 64 mm^3; in the experiment on SKOV-3 cells (10.6 mg/kg/day), 186 ± 57 mm^3; in the experiment on SKOV-3 cells (20 mg/kg/day), 52 ± 11 mm^3. Moreover, the “Start Volume” value in the experiment with PC-3 cells (setting [1]) amounted to 188 ± 17 mm^3; in the experiment on PAN-02 cells (PAN-02 tumor fragments in male C57/B16 mice, HCl salt via s.c. Alzet mini pump, 20 mg/kg/day, tumor volume at start), 82 ± 8 mm^3; in the experiment with SKOV-3 cells (10.6 mg/kg/day), 57 ± 5 mm^3; in the experiment on SKOV-3 cells (20 mg/kg/day), 31 ± 4 mm^3. In addition, the “growth of the tumors” value in the experiment on PC-3 cells (PC-3 xenograft, continuous doses 10.6 mg/kg/day, 25 days, versus vehicle) is on record as “significantly reduced”; with PAN-02 cells (PAN-02 model, continuous doses 20 mg/kg/day, 32 days, versus vehicle), “significantly reduced”; in the experiment with SKOV-3 cells (continuous doses 10.6 or 20 mg/kg/day, 74 days, versus vehicle), “significantly reduced”.

For the compound `CC1=C2C[C@H]3[C@@H](CC=C4C[C@@H](O)CC[C@@]43C)[C@@H]2CC[C@]12O[C@@H]1C[C@H](C)CN[C@H]1[C@H]2C` [Cyclopamine, reference compound], in the experiment on PC-3 cells (setting [2]), the “End Volume” value was 448 ± 152 mm^3 and the “Start Volume” value worked out at 170 ± 29 mm^3.

The record behind these values is US20110034498A1, “DOSING REGIMENS FOR THE TREATMENT OF CANCER” (priority 2006, published 2011).
